Data taken from paper PMC9694926, “Novel Uracil-Based Inhibitors of Acetylcholinesterase with Potency for Treating Memory Impairment in an Animal Model of Alzheimer’s Disease” (Molecules, 2022).

Tests used:
[1] = molecular target: T1, hAChE (Homo sapiens, UniProt P22303); type: in vitro ADME; settings: 0.1 mM, overnight with hAChE, phosphate buffer pH 8.0, 25 °C, NMR
T1 construct: purchased Sigma-Aldrich
Method: There is a possibility that the ester group of the compound 2c can be hydrolyzed by AChE. To test this possibility, the compound 2c (0.1 mM) was incubated overnight with AChE in phosphate buffer (pH 8.0). The same buffer containing compound 2c but without AChE was used as a control. After the end of incubation, the buffer was filtered out of AChE using a centricon-30 ultrafiltration micro-concentrator from Amicon (Millipore Corporation, Billerica, MA, USA) and samples were analyzed by NMR spectroscopy. It was shown that the resonance signals both in the control spectrum and in the spectrum of the residue after AChE treatment are almost the same to those for compound 2c (Supplementary materials, Figures S6, S22 and S41–S44).
The compound 2c was dissolved in ethanol and then in 2 mL of 0.1M sodium phosphate buffer (pH = 8.0) at the final concentration of 0.1 mM. Then, 2.0 units of hAChE were added. The final concentration of ethanol in the buffer was 0.1% vol. The compound 2c was incubated with hAChE overnight at 25 °C. The same volume of buffer containing compound 2c at the concentration of 0.1 mM but without AChE was used as a control. After the end of incubation, the buffer was filtered out of AChE using a centricon-30 ultrafiltration micro-concentrator from Amicon (Millipore Corporation, Billerica, MA, USA). […]

[2] = molecular target: T1, hAChE; assay: Inhibition constants and inhibition type for hAChE (Dixon and Cornish-Bowden plots); type: biochemical
Method: (§1) To study the mechanism of hAChE and hBChE inhibition by compound 2c, the inhibition constants (Ki) were determined. Experiments were performed using three different concentrations of acetylthiocholine (ATC) as substrate for hAChE or butyrylthiocholine (BTC) for hBChE. Analysis of Dixon and Cornish-Bowden plots established that hAChE and hBChE inhibition was of mixed type, with Kci (competitive inhibition) and Kui (uncompetitive) components: Kci = […], Kui = 315 ± 95 pM for hAChE (Figure 3A,B), and Kci = 10.1 ± 3.1 µM, Kui = 24 ± 4.6 µM for hBChE (Figure 3C,D).
(§2) The inhibition constants (Ki) for hAChE and hBChE were determined by Ellman’s method at 412 nm and 25 °C in 0.1M sodium phosphate buffer (pH = 8.0) with various substrate (ATC, BTC) concentrations in the range 0.01–0.1 mM, using UV-1800 Shimadzu (Kyoto, Japan) spectrophotometer. The final enzyme concentration in the assays was in the picomolar range. Controls of active enzyme and substrate spontaneous hydrolysis in the absence of an inhibitor were performed for each substrate concentration. Absorbance change was recorded for 5 min. Inhibition constants were determined from Dixon plot and Cornish-Bowden transformation.

[3] = test system: CD1 mice; assay: Acute toxicity (LD50), intraperitoneal injection; type: in vivo; settings: i.p. injection
Method: All experiments involving animals were performed in accordance with the guidelines set out by the European Union Council Directive 2010/63/EU; the experimental protocols were approved by the Animal Care and Use Committee of the Federal Research Center “Kazan Scientific Center of the Russian Academy of Sciences”. Toxicological experiments were performed using intraperitoneal injection of the various compounds in CD1 mice weighing 20–25 g. Mice were maintained on a 12 h light/dark cycle (light from 7:00 a.m. to 7:00 p.m.) at 20−22 °C and 60−70% relative humidity. Five different doses (determined during preliminary tests) were used with six animals per dose. Animals were observed 14 days after injection, and symptoms of intoxication were recorded. […] LD50 was determined by the method of Weiss. Stock solutions of compounds were prepared in ethanol or water. Compounds were administered intraperitoneally in sterile physiological saline. The concentration of ethanol in physiological saline was 5% vol.

[4] = molecular target: T2, hBChE (Homo sapiens, UniProt P06276); assay: Inhibition constants and inhibition type for hBChE (Dixon and Cornish-Bowden plots); type: biochemical
T2 construct: hBChE from blood plasma; purchased Sigma-Aldrich; host or cells: human blood plasma
Method: as §1, §2

T1 sequence (P22303 32-614): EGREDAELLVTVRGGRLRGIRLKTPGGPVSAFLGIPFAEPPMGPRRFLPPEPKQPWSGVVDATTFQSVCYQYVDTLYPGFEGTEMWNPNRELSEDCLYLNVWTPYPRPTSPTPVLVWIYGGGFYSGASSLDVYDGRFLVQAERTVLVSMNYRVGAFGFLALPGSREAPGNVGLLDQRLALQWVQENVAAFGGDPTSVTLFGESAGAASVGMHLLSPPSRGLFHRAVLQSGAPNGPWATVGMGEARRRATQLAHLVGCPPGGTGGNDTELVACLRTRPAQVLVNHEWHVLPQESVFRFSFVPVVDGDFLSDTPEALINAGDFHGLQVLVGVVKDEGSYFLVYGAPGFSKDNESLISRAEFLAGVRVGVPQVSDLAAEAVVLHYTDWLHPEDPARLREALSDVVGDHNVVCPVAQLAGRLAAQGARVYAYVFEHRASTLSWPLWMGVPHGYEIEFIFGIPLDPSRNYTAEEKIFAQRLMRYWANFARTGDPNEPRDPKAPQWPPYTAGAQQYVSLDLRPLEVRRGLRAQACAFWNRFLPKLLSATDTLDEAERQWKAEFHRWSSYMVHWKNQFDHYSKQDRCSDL
T2 sequence (P06276 29-602): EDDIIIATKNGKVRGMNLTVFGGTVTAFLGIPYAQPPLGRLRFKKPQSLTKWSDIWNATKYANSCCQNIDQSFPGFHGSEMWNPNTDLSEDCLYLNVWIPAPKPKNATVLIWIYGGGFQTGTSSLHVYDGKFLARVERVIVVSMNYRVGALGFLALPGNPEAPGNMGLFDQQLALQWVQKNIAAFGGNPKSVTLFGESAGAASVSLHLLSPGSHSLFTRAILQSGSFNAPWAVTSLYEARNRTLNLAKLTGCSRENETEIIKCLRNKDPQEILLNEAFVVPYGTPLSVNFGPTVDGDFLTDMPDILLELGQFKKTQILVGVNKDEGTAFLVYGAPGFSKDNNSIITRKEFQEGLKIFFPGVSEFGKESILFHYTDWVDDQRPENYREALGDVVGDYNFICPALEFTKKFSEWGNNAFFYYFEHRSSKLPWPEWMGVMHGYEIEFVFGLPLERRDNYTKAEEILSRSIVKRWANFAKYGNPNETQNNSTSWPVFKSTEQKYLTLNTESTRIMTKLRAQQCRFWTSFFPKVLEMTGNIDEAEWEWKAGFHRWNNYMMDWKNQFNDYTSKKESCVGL

CCN(CCCCCn1c(C)cc(=O)n(CCCCCN(CC)Cc2cccc(C(=O)OC)c2)c1=O)Cc1cccc(C(=O)OC)c1 [2c, 1,3-Bis[5-(meta-methoxycarbonylbenzylethylamino)pentyl]-6-methyluracil]
stability in the presence of AChE (hydrolysis of ester groups) [1]: remains stable in the presence of AChE
type of inhibition [2]: mixed type
Kui (uncompetitive) ([2]; substrate ATC): 315 ± 95 pM
LD50 [3]: 147 mg/kg
type of inhibition [4]: mixed type
Kui (uncompetitive) ([4]; substrate BTC): 24 ± 4.6 µM
